Test results taken from patent US12357631B2 (priority 2018, dated 2025).

target: PB2 (Influenza A virus, UniProt P03428); experiment: biochemical; type: binding
Sequence (P03428 whole entry, looked up): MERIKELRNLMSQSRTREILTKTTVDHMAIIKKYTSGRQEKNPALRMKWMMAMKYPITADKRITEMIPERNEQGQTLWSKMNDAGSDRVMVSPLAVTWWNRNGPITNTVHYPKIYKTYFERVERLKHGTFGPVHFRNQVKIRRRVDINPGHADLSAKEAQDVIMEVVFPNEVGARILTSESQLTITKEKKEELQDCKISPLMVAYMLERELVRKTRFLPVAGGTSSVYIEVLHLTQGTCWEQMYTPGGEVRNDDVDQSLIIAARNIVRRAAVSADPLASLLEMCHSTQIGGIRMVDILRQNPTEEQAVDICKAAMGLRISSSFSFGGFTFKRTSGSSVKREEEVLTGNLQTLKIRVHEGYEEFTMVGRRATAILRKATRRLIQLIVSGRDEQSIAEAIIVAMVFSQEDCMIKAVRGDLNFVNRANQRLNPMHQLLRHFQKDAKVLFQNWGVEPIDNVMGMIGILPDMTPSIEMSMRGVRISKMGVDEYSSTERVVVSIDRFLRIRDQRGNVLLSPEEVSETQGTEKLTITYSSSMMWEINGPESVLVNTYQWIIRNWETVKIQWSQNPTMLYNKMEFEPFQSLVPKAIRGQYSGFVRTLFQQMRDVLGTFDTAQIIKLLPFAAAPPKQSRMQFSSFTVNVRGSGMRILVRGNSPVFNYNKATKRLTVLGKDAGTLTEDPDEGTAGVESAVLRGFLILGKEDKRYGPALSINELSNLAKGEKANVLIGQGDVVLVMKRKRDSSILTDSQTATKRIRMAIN

First: CCOCCOc1cccc(CCNC(=O)N[C@@H]2CCC[C@H](Nc3nc(-c4c[nH]c5ncc(F)cc45)ncc3F)C2)c1 [Compound A178]
Second: CCOCc1cccc(COCCNC(=O)N[C@@H]2CCC[C@H](Nc3nc(-c4c[nH]c5ncc(F)cc45)ncc3F)C2)c1 [Compound A187]
The EC50 of the first is higher: over 100 µM for the first, 50 to 100 µM for the second. The second is the more potent here.

Compared with O=C(NCc1ccc(C(=O)O)cc1)OCc1ccnc(C(=O)N[C@@H]2CCC[C@H](Nc3nc(-c4c[nH]c5ncc(F)cc45)ncc3F)C2)c1 [Compound A97], O=C(NCc1cccc(F)c1)OCc1ccnc(C(=O)N[C@H]2CCC[C@@H](Nc3nc(-c4c[nH]c5ncc(F)cc45)ncc3F)C2)c1 [Compound A125] is higher in EC50: under 5 µM for the first, over 100 µM for the second. The first is the more potent here.

CCOCCOCCOCCNC(=O)N[C@@H]1CCC[C@H](Nc2nc(-c3c[nH]c4ncc(F)cc34)ncc2F)C1 [Compound A167] and NCCOCCOCCOCCNC(=O)N[C@@H]1CCC[C@H](Nc2nc(-c3c[nH]c4ncc(F)cc34)ncc2F)C1 [Compound A170] cannot be ordered by EC50: over 100 µM for the first, over 100 µM for the second.

CCOCCOCCOCCNC(=O)N(Cc1ccccc1)[C@@H]1CCC[C@H](Nc2nc(-c3c[nH]c4ncc(F)cc34)ncc2F)C1 [Compound B1] and CCOCCCCCOCCN(Cc1ccccc1)C(=O)N[C@H]1CCC[C@@H](Nc2nc(-c3c[nH]c4ncc(F)cc34)ncc2F)C1 [Compound A196] cannot be ordered by EC50: over 100 µM for the first, over 100 µM for the second.

CCOCCCc1cncc(CCN(C)C(=O)N[C@H]2CCC[C@@H](Nc3nc(-c4c[nH]c5ncc(F)cc45)ncc3F)C2)c1 [Compound A215] and CCOCCOCCc1cccc(N(C)C(=O)N[C@H]2CCC[C@@H](Nc3nc(-c4c[nH]c5ncc(F)cc45)ncc3F)C2)c1 [Compound A212] cannot be ordered by EC50: over 100 µM for the first, over 100 µM for the second.

First: CCCCCCCCCCCN(Cc1ccccc1)C(=O)N[C@@H]1CCC[C@H](Nc2nc(-c3c[nH]c4ncc(F)cc34)ncc2F)C1 [Compound A185]
Second: CCOCCOCCCCCN(CC(N)=O)C(=O)N[C@@H]1CCC[C@H](Nc2nc(-c3c[nH]c4ncc(F)cc34)ncc2F)C1 [Compound A210]
The EC50 of the first is higher: over 100 µM for the first, 50 to 100 µM for the second.

First: O=C(N[C@H]1CCC[C@@H](Nc2nc(-c3c[nH]c4ncc(F)cc34)ncc2F)C1)c1cncc2ccccc12 [Compound A65]
Second: O=C(N[C@H]1CCC[C@@H](Nc2nc(-c3c[nH]c4ncc(F)cc34)ncc2F)C1)N1CCc2ccccc2C1 [Compound A2]
The EC50 of the first is lower: 25 to 50 µM for the first, over 100 µM for the second. The first is the more potent here.

Compared with CN(CCOCCOCCOCCN)C(=O)N[C@@H]1CCC[C@H](Nc2nc(-c3c[nH]c4ncc(F)cc34)ncc2F)C1 [Compound A173], O=C(NCCOCCOCCOCCO)N[C@@H]1CCC[C@H](Nc2nc(-c3c[nH]c4ncc(F)cc34)ncc2F)C1 [Compound A166] is lower in EC50: 50 to 100 µM for the first, 5 to 25 µM for the second.

First: CC(NC(=O)OCc1ccnc(C(=O)N[C@H]2CCC[C@@H](Nc3nc(-c4c[nH]c5ncc(F)cc45)ncc3F)C2)c1)c1ccccn1 (stereo partly shown) [Compound A136]
Second: O=C(NCCc1cccc(Oc2ccccc2)c1)OCc1ccnc(C(=O)N[C@H]2CCC[C@@H](Nc3nc(-c4c[nH]c5ncc(F)cc45)ncc3F)C2)c1 [Compound A109]
The EC50 of the first is lower: 5 to 25 µM for the first, over 100 µM for the second. The first is the more potent here.

Compared with CCOCCOCCOCCNC(=O)N[C@H]1CCC[C@@H](Nc2nc(-c3ccnc(Cl)c3)ncc2F)C1 [Compound A197], O=C(COCCOCCOCCO)N[C@@H]1CCC[C@H](Nc2nc(-c3c[nH]c4ncc(F)cc34)ncc2F)C1 [Compound A265] is lower in EC50: over 100 µM for the first, 5 to 25 µM for the second. The second is the more potent here.

CCOCCOCCCCCN(C)C(=O)NCC(C)CNc1nc(-c2c[nH]c3ncc(F)cc23)ncc1F (stereo not shown) [Compound A218] and CCOCCOCCCCCN(C)C(=O)N1CCC(C(=O)Nc2nc(-c3c[nH]c4ncc(F)cc34)ncc2F)C1 (stereo not shown) [Compound C9] cannot be ordered by EC50: over 100 µM for the first, over 100 µM for the second.

First: O=C(O)COCCOCCOCCC(=O)N[C@H]1CCC[C@@H](Nc2nc(-c3c[nH]c4ncc(F)cc34)ncc2F)C1 [Compound A269]
Second: CCOCCOCCCCCOC(=O)N[C@@H]1CCC[C@H](Nc2nc(-c3c[nH]c4ncc(F)cc34)ncc2F)C1 [Compound A281]
The EC50 of the first is lower: 5 to 25 µM for the first, over 100 µM for the second. The first is the more potent here.

Compound CCOCCOCCOCCN(C(=O)N(C)C)[C@@H]1CCC[C@H](Nc2nc(-c3c[nH]c4ncc(F)cc34)ncc2F)C1 [Compound B6] has an EC50 of over 100 µM.
